The results in this text go back to ChEMBL document CHEMBL4706557, “Synthesis and in vitro and in vivo biological evaluation of novel derivatives of flexicaulin A as antiproliferative agents” (Eur J Med Chem, 2020).

Assay [1] relates to MCF7. The experiment in a line: Antiproliferative activity against human MCF7 cells assessed as inhibition of cell growth incubated for 72 hrs by SRB assay. In kind it is functional, cell-based. The following applies: MCF7, 72 h.
Assay [2] relates to MGC-803. The experiment in a line: Antiproliferative activity against human MGC-803 cells assessed as inhibition of cell growth incubated for 72 hrs by SRB assay. It is filed as functional, cell-based. The following applies: MGC-803, 72 h. (The SRB assay estimates cell density from bound dye.)
Assay [3] deals with TE-1. Put plainly: Antiproliferative activity against human TE-1 cells assessed as inhibition of cell growth incubated for 72 hrs by SRB assay. It is filed as functional, cell-based. Conditions: TE-1, 72 h.
The subject of assay [4] is ECa-109 cell line. Put plainly: Antiproliferative activity against human EC109 cells assessed as inhibition of cell growth incubated for 72 hrs by SRB assay. The following applies: ECa-109, 72 h. In kind it is functional, cell-based.
The test system of assay [5] is ECa-109 cell line. Put plainly: Induction of mitochondrial depolarization in human EC-109 cells assessed as depolarized cell population at 5 mM measured after 24 hrs by JC1 dye based flow cytometry (reference value: 4.2 %). In kind it is functional. (In general: A flow cytometer gives signals particle by particle.)
Assay [6] concerns ECa-109 cell line. The experiment in a line: Induction of apoptosis in human EC109 cells assessed as increase in intracellular ROS level at 5 mM incubated for 24 hrs by DCFH-DA staining based flow cytometry analysis (reference value: 0.6 %). In kind it is functional.
The subject of assay [7] is ECa-109 cell line. Put plainly: Induction of apoptosis in human EC-109 cells assessed as apoptotic rate at 5 mM after 24 hrs by Annexin V-FITC/propidium iodide staining based flow cytometry (reference value: 5.7 %). In kind it is functional.
The test system of assay [8] is ECa-109 cell line. The experiment in a line: Induction of apoptosis in human EC-109 cells assessed as apoptotic rate at 5 mM after 48 hrs by Annexin V-FITC/propidium iodide staining based flow cytometry (reference value: 3.8 %). It is filed as functional.

With `C=C1C(=O)[C@@]23[C@H](O)C[C@@H]4C(C)(C)CCC[C@@]4(COC(C)=O)[C@@H]2[C@@H](O)C[C@H]1[C@H]3OC(=O)c1ccc(OC)c(OC)c1`, the IC50 in assay [1] was 140 nM; in assay [2], 570 nM; in assay [3] it was 340 nM; in assay [4] it was 270 nM.

As to `C=C1C(=O)[C@@]23[C@H](O)C[C@@H]4C(C)(C)CCC[C@@]4(COC(C)=O)[C@@H]2[C@@H](O)C[C@H]1[C@H]3OC(=O)CCCBr`, the IC50 in assay [1] is 470 nM; in assay [2], 250 nM; in assay [3] it was 470 nM; in assay [4], 760 nM.

`C=C1C(=O)[C@@]23[C@H](O)C[C@@H]4C(C)(C)CCC[C@@]4(COC(C)=O)[C@@H]2[C@@H](O)C[C@H]1[C@H]3OC(=O)c1ccc(CBr)cc1`: the IC50 was 140 nM in assay [1], 340 nM in assay [2], 250 nM in assay [3] and 170 nM in assay [4].

As for `C=C1C(=O)[C@@]23[C@H](O)C[C@@H]4C(C)(C)CCC[C@@]4(COC(C)=O)[C@@H]2[C@@H](O)C[C@H]1[C@H]3OC(=O)c1ccccc1F`, the IC50 in assay [1] was determined as 1720 nM; in assay [2] it was 2290 nM; in assay [3], 3630 nM; in assay [4], 1630 nM.

As for `C=C1C(=O)[C@@]23[C@H](O)C[C@@H]4C(C)(C)CCC[C@@]4(COC(C)=O)[C@@H]2[C@@H](O)C[C@H]1[C@H]3OC(=O)c1ccc(Cl)cc1`, the IC50 amounted to 270 nM in assay [1], 280 nM in assay [2], 380 nM in assay [3] and 330 nM in assay [4].

On to `C=C1C(=O)[C@@]23[C@H](O)C[C@@H]4C(C)(C)CCC[C@@]4(COC(C)=O)[C@@H]2[C@@H](O)C[C@H]1[C@H]3OC(=O)c1ccc(C(F)(F)F)cc1`, for which the IC50 in assay [1] turned out to be 350 nM; in assay [2] it was 770 nM; in assay [3], 420 nM; in assay [4], 380 nM.

Turning to `C=C1C(=O)[C@@]23[C@H](O)C[C@@H]4C(C)(C)CCC[C@@]4(COC(C)=O)[C@@H]2[C@@H](O)C[C@H]1[C@H]3OC(=O)c1ccccc1C`, the IC50 in assay [1] was found to be 390 nM; in assay [2], 630 nM; in assay [3], 450 nM; in assay [4], 470 nM.

Regarding `C=C1C(=O)[C@@]23[C@H](O)C[C@@H]4C(C)(C)CCC[C@@]4(COC(C)=O)[C@@H]2[C@@H](O)C[C@H]1[C@H]3OC(=O)c1ccc(Br)cc1`, the IC50 in assay [1] is 330 nM; in assay [2], 610 nM; in assay [3], 390 nM; in assay [4], 380 nM.

For the compound `CC(=O)N[C@@H](CS)C(=O)O` [ACETYLCYSTEINE], the Activity in assay [5] is 4.8%; in assay [6], 0.2%; in assay [7], 6.4%; in assay [8], 4.5%.

On to `C=C1C(=O)[C@@]23[C@H](O)C[C@@H]4C(C)(C)CCC[C@@]4(COC(C)=O)[C@@H]2[C@@H](O)C[C@H]1[C@H]3OC(=O)c1cccc(F)c1`, for which the IC50 in assay [1] is 2230 nM; in assay [2], 2350 nM; in assay [3], 1300 nM; in assay [4], 1630 nM.

Consider `C=C1C(=O)[C@@]23[C@H](O)C[C@@H]4C(C)(C)CCC[C@@]4(COC(C)=O)[C@@H]2[C@@H](O)C[C@H]1[C@H]3OC(=O)c1cccc(Br)c1`, for which the IC50 in assay [1] came out at 380 nM; in assay [2], 420 nM; in assay [3] it was 160 nM; in assay [4] it was 240 nM.

Turning to `C=C1C(=O)[C@@]23[C@H](O)C[C@@H]4C(C)(C)CCC[C@@]4(COC(C)=O)[C@@H]2[C@@H](O)C[C@H]1[C@H]3OC(=O)CCc1ccccc1`, the IC50 amounted to 600 nM in assay [1], 1280 nM in assay [2], 720 nM in assay [3] and 680 nM in assay [4].

For `C=C1C(=O)[C@@]23[C@H](O)C[C@@H]4C(C)(C)CCC[C@@]4(COC(C)=O)[C@@H]2[C@@H](O)C[C@H]1[C@H]3OC(=O)c1cccc(C)c1`, the IC50 in assay [1] stood at 290 nM; in assay [2] it was 310 nM; in assay [3], 320 nM; in assay [4] it was 370 nM.

For `C=C1C(=O)[C@@]23[C@H](O)C[C@@H]4C(C)(C)CCC[C@@]4(COC(C)=O)[C@@H]2[C@@H](O)C[C@H]1[C@H]3OC(=O)c1ccc(C)cc1`, the 50% inhibitory concentration (IC50) in assay [1] was determined as 240 nM; in assay [2] it was 480 nM; in assay [3] it was 300 nM; in assay [4], 300 nM.

`C=C1C(=O)[C@@]23[C@H](O)C[C@@H]4C(C)(C)CCC[C@@]4(COC(C)=O)[C@@H]2[C@@H](O)C[C@H]1[C@H]3OC(=O)c1cccc(OC)c1`: the IC50 in assay [1] is 250 nM; in assay [2], 460 nM; in assay [3], 420 nM; in assay [4], 440 nM.

Take `C=C1C(=O)[C@@]23[C@H](O)C[C@@H]4C(C)(C)CCC[C@@]4(COC(C)=O)[C@@H]2[C@@H](O)C[C@H]1[C@H]3OC(=O)c1cccc(Cl)c1Cl`: the IC50 in assay [1] came out at 310 nM; in assay [2], 690 nM; in assay [3] it was 390 nM; in assay [4], 330 nM.

Turning to `C=C1C(=O)[C@@]23[C@H](O)C[C@@H]4C(C)(C)CCC[C@@]4(COC(C)=O)[C@@H]2[C@@H](O)C[C@H]1[C@H]3OC(=O)c1ccc(Cl)cc1Cl`, the IC50 in assay [1] was determined as 1170 nM; in assay [2], 1150 nM; in assay [3], 1240 nM; in assay [4], 4250 nM.

With `C=C1C(=O)[C@@]23[C@H](O)C[C@@H]4C(C)(C)CCC[C@@]4(COC(C)=O)[C@@H]2[C@@H](O)C[C@H]1[C@H]3OC(=O)c1ccccc1Br`, the IC50 was 460 nM in assay [1], 520 nM in assay [2], 370 nM in assay [3] and 510 nM in assay [4].

Turning to `C=C1C(=O)[C@@]23[C@H](O)C[C@@H]4C(C)(C)CCC[C@@]4(COC(C)=O)[C@@H]2[C@@H](O)C[C@H]1[C@H]3OC(=O)c1cccc(C(F)(F)F)c1`, the IC50 in assay [1] is 290 nM; in assay [2], 1150 nM; in assay [3] it was 370 nM; in assay [4] it was 330 nM.

In the case of `C=C1C(=O)[C@@]23[C@H](O)C[C@@H]4C(C)(C)CCC[C@@]4(COC(C)=O)[C@@H]2[C@@H](O)C[C@H]1[C@H]3OC(=O)c1cc(Cl)ccc1OC`, the half-maximal inhibitory concentration (IC50) in assay [1] amounted to 480 nM; in assay [2], 660 nM; in assay [3] it was 460 nM; in assay [4], 560 nM.

In the case of `C=C1C(=O)[C@@]23[C@H](O)C[C@@H]4C(C)(C)CCC[C@@]4(COC(C)=O)[C@@H]2[C@@H](O)C[C@H]1[C@H]3OC(=O)c1ccccc1Cl`, the IC50 in assay [1] is 410 nM; in assay [2] it was 710 nM; in assay [3], 450 nM; in assay [4] it was 410 nM.

Consider `C=C1C(=O)[C@@]23[C@H](O)C[C@@H]4C(C)(C)CCC[C@@]4(COC(C)=O)[C@@H]2[C@@H](O)C[C@H]1[C@H]3OC(=O)c1ccccc1`, for which the IC50 in assay [1] stood at 200 nM; in assay [2], 470 nM; in assay [3] it was 330 nM; in assay [4] it was 310 nM.

Regarding `C=C1C(=O)[C@@]23[C@H](O)C[C@@H]4C(C)(C)CCC[C@@]4(COC(C)=O)[C@@H]2[C@@H](O)C[C@H]1[C@H]3OC(=O)c1ccc(F)cc1`, the IC50 in assay [1] was determined as 1340 nM; in assay [2], 920 nM; in assay [3] it was 20100 nM; in assay [4], 8480 nM.

`C=C1C(=O)[C@]23[C@H](O)[C@H]1CC[C@H]2[C@@]12CO[C@]3(O)[C@@H](O)[C@@H]1C(C)(C)CC[C@@H]2O` [ORIDONIN]: the IC50 in assay [4] came out at 22000 nM.

With `C=C1C(=O)[C@@]23[C@H](O)C[C@@H]4C(C)(C)CCC[C@@]4(COC(C)=O)[C@@H]2[C@@H](O)C[C@H]1[C@H]3O`, the IC50 was 6790 nM in assay [1], 8700 nM in assay [2], 6820 nM in assay [3] and 5240 nM in assay [4].

Consider `C=C1C(=O)[C@@]23[C@H](O)C[C@@H]4C(C)(C)CCC[C@@]4(COC(C)=O)[C@@H]2[C@@H](O)C[C@H]1[C@H]3OC(=O)c1ccccc1C(F)(F)F`, for which the IC50 in assay [1] is 400 nM; in assay [2], 790 nM; in assay [3] it was 320 nM; in assay [4], 420 nM.

Consider `C=C1C(=O)[C@@]23[C@H](O)C[C@@H]4C(C)(C)CCC[C@@]4(COC(C)=O)[C@@H]2[C@@H](O)C[C@H]1[C@H]3OC(=O)c1cccc(Cl)c1`, for which the IC50 in assay [1] worked out at 360 nM; in assay [2] it was 410 nM; in assay [3], 410 nM; in assay [4], 400 nM.

For `C=C1C(=O)[C@@]23[C@H](O)C[C@@H]4C(C)(C)CCC[C@@]4(COC(C)=O)[C@@H]2[C@@H](O)C[C@H]1[C@H]3OC(=O)c1ccc(OC)cc1`, the IC50 in assay [1] was 230 nM; in assay [2], 460 nM; in assay [3], 250 nM; in assay [4] it was 290 nM.

For orientation: IC50 means the concentration needed to halve the response being measured.
